Read-outs that look alike come from different tables or passages of the source.

Data on 3 compounds can be found in publication PMC7662639, “Synthesis and Evaluation of PEG-PR for Water Flux Correction in an In Situ Rat Perfusion Model” (Molecules, 2020).

Data set [1] is described as follows: Recirculation intestinal perfusion method, Peff of model drugs with water flux corrected by marker. Format: in vivo, rat. On the procedure:
A male rat weighing about 200 g was anesthetized and then fixed on a plate heated by a lamp at 37 °C. Through careful operation, two glass tubs were tightly secured on both ends of the intestinal segment using silk sutures. The Krebs–Ringer buffer was injected into the gut from the head end of the intestinal segment with a syringe until the outflow was clear. The intestine was then covered with cotton gauze wetted with 37 °C Krebs–Ringer buffer to maintain intestinal integrity and activity. The peristaltic pump and donor chamber (syringe) were connected with two catheters ligated onto the two abovementioned glass tubs. The intestinal segments were placed carefully back into the rat abdomen to avoid interference with blood circulation. […] After stabilizing the whole system for 10 min with the perfusion solution (peristaltic pump, flow: 5 mL/min), the initial sample (0.4 mL, C’0) was collected from the donor chamber, and the equal perfusion solution with the model drug (100 μM, C0) was added into the donor chamber. Samples (0.4 mL, C’t and Ce) were then collected every 10 min for 60 min. Finally, the length of the perfused intestinal segment was precisely measured at the end of the experiment.
Internal standard solution (cresol red, 600 μg/mL) was added into the 300-μL sample solution and vortexed for 30 s. Then, 600 μL of […] was added, and the samples were vortexed for 2 min. After homogeneous mixing, the mixture was centrifuged at 10,000 rpm for 10 min. Finally, the 20-μL treated supernatant was subjected to detection by HPLC.
Thus, it was necessary to correct the volume of the perfusion solution during the experiment. In this work, the volumes of the perfused solutions (Vt) were calculated from the experimental concentrations of the markers (C’t) as (4) V0=C^′V^′/C0′ (5) Vt=(V0−0.4)Ct−1′+0.4C^′/Ct′ (t=1,2,3…).
The corrected drug concentration (Ct) was calculated as (6) Ct=CeVt/V0 where Ct represents the concentration of the compound corrected by the marker at time t, and Ce represents the experimental drug concentration value.
The apparent absorption rate coefficients (ka) were obtained by the equation of luminal corrected concentration versus time:(7) Ct=C0×e^−ka·t.
The Peff value was obtained from ka using the following equation, where R is the effective radius of the intestinal segment:(8) Peff=Ka·R/2.

On the set-up of data set [2]: method as in ref 39 (Ruiz-Picazo et al. 2017). The settings on record: Doluisio method, ref 39 (Ruiz-Picazo et al. 2017), cited from earlier work.
The nature of data set [3]: Stability of markers and model drugs in Krebs–Ringer buffer (shaker bath, 37 °C, 120 min). The settings on record: for Ending (120 min) Conc. / Initial Conc.: 37 °C shaker bath, mean ± SD, n = 3; for Initial Conc.: start of experiment; for Percentage of concentration change: (Initial Conc. - Ending Conc.) / Initial Conc., 37 °C; for Ending (120 min) Conc. / Percentage of concentration change: 120 min. Type of data set: physicochemical. How it is done: At the beginning and end (120 min) of the experiment, perfusion solution samples (0.4 mL) were acquired and centrifuged at 12,000 rpm for 10 min to determine the concentration changes of all compounds by HPLC analysis.
Table S1. Concentration changes of all compounds before and after the shaker bath
experiment. Data are shown as mean ± SD, n = 3.
Initial Ending Percentage of
Compound (120 min) concentration
As/Ai Conc. (μM) As/Ai Conc. (μM) change
As: HPLC peak area of compound .
Ai: HPLC peak area of internal standard .
Percentage of concentration change: (Initial Conc. -Ending Conc.) / Initial Conc.
Figure S7. Calibration line of PR (MW = 354) in Krebs–Ringer buffer.
(1 picture or pasted object on this page, not shown here)

Data set [4] is described as follows: Everted gut sac (EGS) permeability. Format: in vitro ADME, rat. How it is done: Briefly, the male Wistar rats were fasted for 1 day with access to only double-distilled water and then anesthetized with ether. Then, the duodenum, jejunum, ileum, and colon (10–15 cm) were cut out and preserved in cold Krebs–Ringer buffer. After the intestinal residue was removed, the intestinal segments were everted by a glass rod and ligated onto the appropriate glass tube. […] Then, 0.4 mL of receiver fluid was collected from the everted intestinal segments, and an equal blank Krebs–Ringer buffer was replenished every 15 min during the experiment.
An internal standard (cresol red 100 μg/mL) was added to every 300-μL intestinal fluid sample. The mixture was vortexed for 30 s and dried under nitrogen blowing at 40 °C. The residue was redissolved in 150-μL methanol and vortexed for 30 s. The supernatant was then subjected to detection by HPLC after centrifuging at 10,000 rpm for 10 min.

The conditions of data set [5]: after 8 h, rat perfusion experiments; cited from earlier work.
Details of data set [6]: method as in ref 21 (Tugcu-Demiroz et al. 2014). The settings on record: Doluisio technique; ref 21 (Tugcu-Demiroz et al. 2014); cited from earlier work.
On the set-up of data set [7]: method as in ref 22 (Sutton et al. 2001). The settings on record: SPIP; ref 22 (Sutton et al. 2001); cited from earlier work.
Data set [8] is described as follows: Water flux (Jwater) corrected by marker in the recirculation perfusion model. Format: in vivo, rat. The settings on record: 60–120 min, marker 56 μM, mean ± SD, n = 6. On the procedure:
The effective intestinal membrane permeability (Peff) of each model drug was surveyed using the recirculation intestinal perfusion method, as previously mentioned. A male rat weighing about 200 g was anesthetized and then fixed on a plate heated by a lamp at 37 °C. Through careful operation, two glass tubs were tightly secured on both ends of the intestinal segment using silk sutures. The Krebs–Ringer buffer was injected into the gut from the head end of the intestinal segment with a syringe until the outflow was clear. The intestine was then covered with cotton gauze wetted with 37 °C Krebs–Ringer buffer to maintain intestinal integrity and activity. The peristaltic pump and donor chamber (syringe) were connected with two catheters ligated onto the two abovementioned glass tubs. […] Finally, the length of the perfused intestinal segment was precisely measured at the end of the experiment.
As previously mentioned, the water flux through the membrane due to water absorption and secretion was of such significance that it could have influence on the accuracy of the experimental results. […] In this work, the volumes of the perfused solutions (Vt) were calculated from the experimental concentrations of the markers (C’t) as (4) V0=C^′V^′/C0′ (5) Vt=(V0−0.4)Ct−1′+0.4C^′/Ct′ (t=1,2,3…).
Jwater corrected by the marker was calculated using the following equation:(9) Jwater=d(V0−Vt)/dt (t=1,2,3…).

[9] abbreviates: rat complete small intestine, water flux corrected by PEG4k-PR, mean ± SD, n = 3.
Where [10] appears, read: rat complete small intestine, water flux corrected by PEG5k-PR, mean ± SD, n = 3.
The mark [11] stands for this setting: rat complete small intestine, water flux corrected by PR, mean ± SD, n = 3.

Regarding `CC(C)NCC(O)COc1ccc(CC(N)=O)cc1` (stereo not drawn) [Atenolol], the Peff in data set [1] (colon, corrected by PEG5k-PR) is 3.3e-05 cm/s; in data set [1] (ileum, corrected by PEG5k-PR) it was 2.3e-05 cm/s; in data set [1] (jejunum, corrected by PEG5k-PR), 2.6e-05 cm/s; in data set [1] (setting [9]), 1.06 ± 0.24 ×10^−5 cm/s; in data set [1] (setting [10]), 1.38 ± 0.34 ×10^−5 cm/s; in data set [1] (setting [11]), 0.49 ± 0.10 ×10^−5 cm/s. For the same compound, the Peff in data set [2] (colon) is 21.1 ×10⁻⁶ cm/s; in data set [2] (ileum), 16.3 ×10⁻⁶ cm/s; in data set [2] (jejunum), 22.7 ×10⁻⁶ cm/s. For the same compound, in data set [3], the “Ending (120 min) Conc.” value was 105.93 ± 0.61 µM. Besides, the “Initial Conc.” value in data set [3] was found to be 105.19 ± 0.96 µM. For the same compound, in data set [3], the “Percentage of concentration change” value is on record as 0.75%.
With `COCCc1ccc(OCC(O)CNC(C)C)cc1` (stereo not drawn) [Metoprolol], the Peff in data set [1] (colon, corrected by PEG5k-PR) was 0.000102 cm/s; in data set [1] (ileum, corrected by PEG5k-PR), 9.4e-05 cm/s; in data set [1] (jejunum, corrected by PEG5k-PR), 0.000107 cm/s; in data set [1] (setting [9]), 5.06 ± 0.57 ×10^−5 cm/s; in data set [1] (setting [10]) it was 5.29 ± 1.49 ×10^−5 cm/s; in data set [1] (setting [11]), 5.11 ± 0.85 ×10^−5 cm/s. The “Ending (120 min) Conc.” value in data set [3] worked out at 102.12 ± 0.58 µM. For the same compound, in data set [3], the “Initial Conc.” value stood at 103.62 ± 2.29 µM. The “Percentage of concentration change” value in data set [3] came to 1.46%.
Take Phenol red [PR]: the cumulative permeable percentage in data set [4] (56 μM, all intestinal segments) was 3–5%. The “cumulative permeable percentage at 112 μM relative to 28 μM” value in data set [4] (colon) was “twice as large”. Also, the Papp in data set [4] (colon, 28 μM) is listed as 4.07 ± 1.33 ×10^−6 cm/s; in data set [4] (colon, 56 μM), 5.83 ± 1.9 ×10^−6 cm/s; in data set [4] (colon, 112 μM), 8.57 ± 3.54 ×10^−6 cm/s; in data set [4] (ileum, 28 μM), 6.17 ± 2.17 ×10^−6 cm/s; in data set [4] (ileum, 56 μM), 6.77 ± 2.32 ×10^−6 cm/s; in data set [4] (ileum, 112 μM), 8.90 ± 1.65 ×10^−6 cm/s. The Papp in data set [4] (jejunum, 28 μM) was 7.68 ± 2.04 ×10^−6 cm/s; in data set [4] (jejunum, 56 μM) it was 8.36 ± 3.11 ×10^−6 cm/s; in data set [4] (jejunum, 112 μM) it was 10.42 ± 2.58 ×10^−6 cm/s. The “W (cumulative permeable percentage)” value in data set [4] (colon, 28 μM) is given as 2.50 ± 0.82%; in data set [4] (colon, 56 μM), 3.36 ± 0.79%; in data set [4] (colon, 112 μM), 5.18 ± 1.22%; in data set [4] (ileum, 28 μM), 3.55 ± 1.50%; in data set [4] (ileum, 56 μM) it was 4.23 ± 1.38%; in data set [4] (ileum, 112 μM), 5.27 ± 2.31%. Further, the “W (cumulative permeable percentage)” value in data set [4] (jejunum, 28 μM) is given as 4.44 ± 1.98%; in data set [4] (jejunum, 56 μM) it was 4.92 ± 1.12%; in data set [4] (jejunum, 112 μM) it was 5.77 ± 1.70%. The urinary recovery result in data set [5] is reported as “about 4%”. Further, the water flux in data set [6] was 55 µL/cm/h. Besides, the “average corrected water flux” value in data set [7] is 26.8 ± 49.2 µL/cm/h. In data set [3], the “Ending (120 min) Conc.” value was determined as 56.11 ± 1.57 µM. Also, the “Initial Conc.” value in data set [3] came to 56.90 ± 1.10 µM. The “Percentage of concentration change” value in data set [3] was 1.38%. Moreover, the “Jwater (water flux) corrected by the marker” value in data set [8] is 88.7 ± 37.9 µL/cm/h.
